Assay [1] has as its target T1, Bub1 (Homo sapiens, UniProt O43683).
T1 construct: catalytic domain of human Bub1 (amino acids 704-1085); His6 (N); made in house; host or cells: insect cells (Hi5)
Description: Bub1 high ATP kinase assay (TR-FRET). It is filed as biochemical. Conditions: Bub1 high ATP (2 mM) IC50, TR-FRET, 2 mM ATP; Table 3. The text has this:
Bub1 high ATP Kinase Assay
Bub1-inhibitory activity of compounds of the present invention at a high ATP concentration was quantified employing the Bub1 TR-FRET high ATP kinase assay as described in the following paragraphs.
N-terminally His6-tagged recombinant catalytic domain of human Bub1 (amino acids 704-1085), expressed in insect cells (Hi5) and purified by Ni-NTA affinity chromatography and subsequent size exclusion chromatography, was used as enzyme. As substrate for the kinase reaction the biotinylated peptide biotin-Ahx-[…] (C-terminus in amid form) was used which can be purchased e.g. form the company Biosyntan (Berlin, Germany).
Then the kinase reaction was started by the addition of 2 μl of a solution of Bub1 in assay buffer and the resulting mixture was incubated for a reaction time of 60 min at 22° C. The concentration of Bub1 was adjusted depending of the activity of the enzyme lot and was chosen appropriate to have the assay in the linear range, a typical concentration is about 200 ng/ml. The reaction was stopped by the addition of 3 μl of a solution of TR-FRET detection reagents (0.167 μM streptavidine-XL665 [Cisbio Bioassays, Codolet, France] and 1.67 nM anti-phosho-Serine antibody [Merck Millipore, cat. #35-002] and 0.67 nM LANCE EU-W1024 labeled anti-mouse IgG antibody [Perkin-Elmer, product no. AD0077, as an alternative a Terbium-cryptate-labeled anti-mouse IgG antibody from Cisbio Bioassays can be used]) in an aqueous EDTA-solution (83.3 mM EDTA, 0.2% (w/v) bovine serum albumin in 100 mM HEPES pH 7.5).
The resulting mixture was incubated 1 h at 22° C. to allow the formation of complex between the phosphorylated biotinylated peptide and the detection reagents. Subsequently the amount of phosphorylated substrate was evaluated by measurement of the resonance energy transfer from the Eu-chelate to the streptavidine-XL. Therefore, the fluorescence emissions at 620 nm and 665 nm after excitation at 350 nm was measured in a TR-FRET reader, e.g. a Pherastar or Pherastar FS (both from BMG Labtechnologies, Offenburg, Germany) or a Viewlux (Perkin-Elmer). The ratio of the emissions at 665 nm and at 622 nm was taken as the measure for the amount of phosphorylated substrate.
A general note: TR-FRET usually uses a lanthanide donor and a delayed reading to cut background.

Assay [2] concerns the target Ba/F3-EGFR-WT cells (Homo sapiens, UniProt P00533). The experiment in a line: Ba/F3 cell survival assay, wild type EGFR. Conditions: Cell Titer-Glo, 48 h, with 10 ng/mL EGF; Table 4; read-out: BA/F3 (wild type) IC50. In kind it is cell-based.
The target of assay [3] is T2, EGFR with insertion SVD between D770 and N771 (mutEGFR D770_N771insSVD) (Homo sapiens, UniProt P00533, DUP768-770).
T2 construct: amino acids R669 to A1210; made in house; host or cells: Sf9 insect cells (baculovirus)
T2 sequence (P00533 other isoform, or with tags, fused parts or gaps DUP768-770): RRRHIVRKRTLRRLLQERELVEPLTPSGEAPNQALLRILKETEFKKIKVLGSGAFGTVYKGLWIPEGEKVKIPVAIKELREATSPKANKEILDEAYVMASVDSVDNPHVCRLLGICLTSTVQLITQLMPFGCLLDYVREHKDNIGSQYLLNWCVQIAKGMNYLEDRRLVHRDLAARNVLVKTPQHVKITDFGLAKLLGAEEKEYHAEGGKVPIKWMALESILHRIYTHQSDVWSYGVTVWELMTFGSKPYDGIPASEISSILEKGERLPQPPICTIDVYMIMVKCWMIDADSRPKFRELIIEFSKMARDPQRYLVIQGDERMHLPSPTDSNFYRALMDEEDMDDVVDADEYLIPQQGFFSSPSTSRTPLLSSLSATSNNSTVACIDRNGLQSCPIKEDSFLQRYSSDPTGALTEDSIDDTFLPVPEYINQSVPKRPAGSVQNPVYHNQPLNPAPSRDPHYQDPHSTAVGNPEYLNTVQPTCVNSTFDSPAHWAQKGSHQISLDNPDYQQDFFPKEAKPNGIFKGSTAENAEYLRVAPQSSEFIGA
Description: Exon20-Mutant-EGFR(D770_N771insSVD) kinase assay (TR-FRET). Conditions: 2 mM ATP, Table 2. It is filed as biochemical.

Assay [4] concerns the target Ba/F3-EGFR-D770_N771insSVD cells (Homo sapiens, UniProt P00533, DUP768-770, cells depend on it). The experiment in a line: Ba/F3 cell survival assay, EGFR D770_N771insSVD. It is filed as cell-based. Conditions: Cell Titer-Glo, 48 h, without IL-3; Table 4; read-out: BA/F3 (insSVD) IC50.

“And” between values parts separate entries of the source, which are not always exact repeats. Identical values can stand only once. A value given as a limit tells only on which side of the number the result lay.

T1 sequence (O43683 704-1085): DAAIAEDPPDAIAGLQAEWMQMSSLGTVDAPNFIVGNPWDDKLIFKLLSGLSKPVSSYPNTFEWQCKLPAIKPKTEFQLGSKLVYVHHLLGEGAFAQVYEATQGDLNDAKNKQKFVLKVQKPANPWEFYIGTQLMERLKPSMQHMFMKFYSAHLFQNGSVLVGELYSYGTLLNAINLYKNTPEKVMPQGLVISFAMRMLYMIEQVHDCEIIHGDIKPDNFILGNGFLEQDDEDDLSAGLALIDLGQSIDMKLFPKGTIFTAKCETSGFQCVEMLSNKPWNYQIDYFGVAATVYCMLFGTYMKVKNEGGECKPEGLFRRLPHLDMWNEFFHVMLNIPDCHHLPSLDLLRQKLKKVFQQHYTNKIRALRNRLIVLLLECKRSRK
Chain of Ba/F3-EGFR-WT cells (P00533 whole entry, looked up, stated change not applied): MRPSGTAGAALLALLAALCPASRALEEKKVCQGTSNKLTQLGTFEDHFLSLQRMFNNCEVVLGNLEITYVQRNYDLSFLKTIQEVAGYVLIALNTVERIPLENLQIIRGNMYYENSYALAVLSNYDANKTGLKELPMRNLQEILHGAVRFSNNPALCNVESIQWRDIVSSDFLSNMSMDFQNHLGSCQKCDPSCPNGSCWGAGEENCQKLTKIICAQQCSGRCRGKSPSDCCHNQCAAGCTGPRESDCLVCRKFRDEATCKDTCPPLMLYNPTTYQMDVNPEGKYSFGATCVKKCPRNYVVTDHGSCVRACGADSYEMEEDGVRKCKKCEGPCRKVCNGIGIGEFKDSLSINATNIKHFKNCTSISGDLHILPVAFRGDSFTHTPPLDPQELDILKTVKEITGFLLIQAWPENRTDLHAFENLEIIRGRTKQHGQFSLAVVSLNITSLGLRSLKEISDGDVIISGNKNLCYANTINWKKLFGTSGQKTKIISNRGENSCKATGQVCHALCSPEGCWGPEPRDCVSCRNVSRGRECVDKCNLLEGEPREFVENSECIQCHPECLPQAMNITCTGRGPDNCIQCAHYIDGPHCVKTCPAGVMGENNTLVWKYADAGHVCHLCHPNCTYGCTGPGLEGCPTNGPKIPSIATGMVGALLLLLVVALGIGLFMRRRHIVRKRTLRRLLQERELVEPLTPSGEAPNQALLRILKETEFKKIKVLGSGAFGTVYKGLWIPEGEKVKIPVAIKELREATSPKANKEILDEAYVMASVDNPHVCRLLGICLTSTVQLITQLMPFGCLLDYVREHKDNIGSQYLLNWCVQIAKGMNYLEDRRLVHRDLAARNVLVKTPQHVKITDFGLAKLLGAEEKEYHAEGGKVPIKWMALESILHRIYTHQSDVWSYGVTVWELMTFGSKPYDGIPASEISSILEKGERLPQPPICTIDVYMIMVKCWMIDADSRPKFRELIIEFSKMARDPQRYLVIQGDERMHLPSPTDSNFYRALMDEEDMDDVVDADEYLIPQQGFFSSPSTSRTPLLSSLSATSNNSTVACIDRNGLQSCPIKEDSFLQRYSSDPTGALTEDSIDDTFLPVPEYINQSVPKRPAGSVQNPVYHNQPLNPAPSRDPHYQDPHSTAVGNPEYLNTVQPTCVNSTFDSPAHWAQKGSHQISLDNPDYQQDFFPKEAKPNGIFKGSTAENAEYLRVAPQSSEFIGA
Chain of Ba/F3-EGFR-D770_N771insSVD cells (P00533 with tags, fused parts or gaps DUP768-770): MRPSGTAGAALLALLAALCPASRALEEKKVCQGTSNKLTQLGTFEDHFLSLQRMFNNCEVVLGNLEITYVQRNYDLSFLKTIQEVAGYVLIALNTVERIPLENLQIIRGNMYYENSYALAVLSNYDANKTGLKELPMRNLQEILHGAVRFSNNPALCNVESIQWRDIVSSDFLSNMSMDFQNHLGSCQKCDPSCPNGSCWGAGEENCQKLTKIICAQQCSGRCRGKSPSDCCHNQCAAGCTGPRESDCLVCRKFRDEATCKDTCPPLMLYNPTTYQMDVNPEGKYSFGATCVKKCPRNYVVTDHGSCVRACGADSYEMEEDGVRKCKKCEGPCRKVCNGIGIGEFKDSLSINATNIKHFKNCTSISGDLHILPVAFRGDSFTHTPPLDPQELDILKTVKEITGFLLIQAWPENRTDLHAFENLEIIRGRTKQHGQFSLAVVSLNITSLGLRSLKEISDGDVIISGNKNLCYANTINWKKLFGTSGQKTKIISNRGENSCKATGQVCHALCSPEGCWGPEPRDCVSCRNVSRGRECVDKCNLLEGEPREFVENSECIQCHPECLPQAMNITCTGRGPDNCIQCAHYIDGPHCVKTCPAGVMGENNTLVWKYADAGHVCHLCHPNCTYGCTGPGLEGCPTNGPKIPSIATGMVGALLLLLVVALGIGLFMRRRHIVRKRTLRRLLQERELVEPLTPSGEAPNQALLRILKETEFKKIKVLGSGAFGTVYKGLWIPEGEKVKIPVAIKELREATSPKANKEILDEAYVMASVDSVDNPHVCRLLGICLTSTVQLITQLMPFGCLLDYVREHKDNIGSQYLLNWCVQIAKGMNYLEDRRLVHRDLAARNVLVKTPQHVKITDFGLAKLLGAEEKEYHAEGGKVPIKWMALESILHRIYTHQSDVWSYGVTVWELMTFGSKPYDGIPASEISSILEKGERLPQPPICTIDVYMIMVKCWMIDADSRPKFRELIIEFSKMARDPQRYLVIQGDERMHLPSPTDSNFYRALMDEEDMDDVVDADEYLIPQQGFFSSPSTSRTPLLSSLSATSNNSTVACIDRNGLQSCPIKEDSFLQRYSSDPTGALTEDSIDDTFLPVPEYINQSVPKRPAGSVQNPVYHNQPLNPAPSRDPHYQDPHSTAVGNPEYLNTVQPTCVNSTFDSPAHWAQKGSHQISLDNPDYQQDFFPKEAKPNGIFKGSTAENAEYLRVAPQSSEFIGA

As a reminder, the IC50 is the midpoint of a concentration-inhibition curve. As to `COc1c(Cl)cccc1Nc1c(-c2ccncc2OC[C@@H]2CCCO2)[nH]c2c1C(=O)NC(C)C2` (mixture of isomers) [Example 3, 3-(3-chloro-2-methoxyanilino)-6-methyl-2-(3-{[(2S)-oxolan-2-yl]methoxy}pyridin-4-yl)-1,5,6,7-tetrahydro-4H-pyrrolo[3,2-c]pyridin-4-one], the IC50 in assay [1] was 5.39 µM. For the same compound, the GI50 in assay [2] stood at 328 nM; in assay [4] it was 28.5 nM. Also, the “mutEGFR (D770_N771insSVD) kinase assay IC50” value (shortened to “mutEGFR”) in assay [3] was determined as 85.4 pM.

Turning to `COc1c(F)cccc1Nc1c(-c2ccncc2OC[C@@H]2CCCO2)[nH]c2c1C(=O)NC(C)C2` (mixture of isomers) [Example 8, 3-(3-fluoro-2-methoxyanilino)-6-methyl-2-(3-{[(2S)-oxolan-2-yl]methoxy}pyridin-4-yl)-1,5,6,7-tetrahydro-4H-pyrrolo[3,2-c]pyridin-4-one], the IC50 in assay [1] was 12.8 µM and 9.72 µM and > 20 µM. In addition, the GI50 in assay [2] amounted to 623 nM; in assay [4], 73.3 nM. Moreover, the “mutEGFR” value in assay [3] was 246 pM.

Consider `COc1c(Cl)cccc1Nc1c(-c2ccncc2OC[C@@H]2CCCO2)[nH]c2c1C(=O)NCC2CCO` (mixture of isomers) [Example 16, 3-(3-chloro-2-methoxyanilino)-7-(2-hydroxyethyl)-2-(3-{[(2S)-oxolan-2-yl]methoxy}pyridin-4-yl)-1,5,6,7-tetrahydro-4H-pyrrolo[3,2-c]pyridin-4-one], for which, in assay [1], the IC50 was greater than 20 µM. In addition, the results for the GI50 in assay [2] and in assay [4] were 644 nM and 63.8 nM, respectively. Also, the “mutEGFR” value in assay [3] is 413 pM.

Compound `COc1c(Cl)cccc1Nc1c(-c2ccncc2OCC2COCCO2)[nH]c2c1C(=O)N[C@H](C)C2` (mixture of isomers) [Example 24, (6R)-3-(3-chloro-2-methoxy-anilino)-2-[3-(1,4-dioxan-2-ylmethoxy)-4-pyridyl]-6-methyl-1,5,6,7-tetrahydropyrrolo[3,2-c]pyridin-4-one] came in with an IC50 in assay [1] of 3.48 µM. The GI50 in assay [2] is 500 nM; in assay [4], 20.8 nM. In assay [3], the “mutEGFR” value is 111 pM and <72.5 pM.

Compound `COc1c(Cl)cccc1Nc1c(-c2ccncc2OCC2CCCCO2)[nH]c2c1C(=O)N[C@H](C)C2` (mixture of isomers) [Example 27, (6R)-3-(3-chloro-2-methoxy-anilino)-6-methyl-2-[3-(tetrahydropyran-2-ylmethoxy)-4-pyridyl]-1,5,6,7-tetrahydropyrrolo[3,2-c]pyridin-4-one] had an IC50 in assay [1] greater than 5.7 µM. Also, the GI50 is 305 nM in assay [2] and 12 nM in assay [4]. Moreover, the “mutEGFR” value in assay [3] is 97.3 pM.

In the case of `COc1c(Cl)cccc1Nc1c(-c2ccncc2OC[C@@H]2CCCO2)[nH]c2c1C(=O)NCC2C` (mixture of isomers) [Example 30, 3-(3-chloro-2-methoxy-anilino)-7-methyl-2-(3-{[(2S)-tetrahydrofuran-2-yl]methoxy}-4-pyridyl)-1,5,6,7-tetrahydropyrrolo[3,2-c]pyridin-4-one], the IC50 in assay [1] worked out at 11.3 µM. Besides, the GI50 in assay [2] was determined as 606 nM; in assay [4], 44 nM. For the same compound, the “mutEGFR” value in assay [3] was determined as 147 pM.

For the compound `COc1c(Cl)cccc1Nc1c(-c2ccncc2OC[C@@H]2CCCO2)[nH]c2c1C(=O)NC(C(F)(F)F)C2` (mixture of isomers) [Example 38, 3-(3-chloro-2-methoxy-anilino)-2-(3-{[(2S)-tetrahydrofuran-2-yl]methoxy}-4-pyridyl)-6-(trifluoromethyl)-1,5,6,7-tetrahydropyrrolo[3,2-c]pyridin-4-one], in assay [1], the IC50 was 0.628 µM. Moreover, the GI50 in assay [2] was found to be 996 nM; in assay [4], 138 nM. The “mutEGFR” value in assay [3] was determined as 188 pM.

In turn, `COCC(C)Oc1cnccc1-c1[nH]c2c(c1Nc1cccc(Cl)c1OC)C(=O)N[C@H](C)C2` (mixture of isomers) [Example 41, (6R)-3-(3-chloro-2-methoxy-anilino)-2-{3-[(1-methoxypropan-2-yl)oxy]-4-pyridyl}-6-methyl-1,5,6,7-tetrahydropyrrolo[3,2-c]pyridin-4-one] came in with an IC50 in assay [1] of 17 µM. The GI50 came out at 479 nM in assay [2] and 39.8 nM in assay [4]. The “mutEGFR” value in assay [3] worked out at 178 pM.

On to `COc1c(Cl)cccc1Nc1c(-c2ccncc2OCC2COCCO2)[nH]c2c1C(=O)N[C@@H]1CCC[C@H]21` (mixture of isomers) [Example 52, (5aR,8aS)-3-(3-chloro-2-methoxyanilino)-2-{3-[(1,4-dioxan-2-yl)methoxy]-4-pyridyl}-5,5a,6,7,8,8a-hexahydrocyclopenta[b]pyrrolo[2,3-d]pyridin-4(1)-one], for which, in assay [1], the IC50 was 10 µM. Besides, the GI50 was 407 nM in assay [2] and 38.9 nM in assay [4]. Also, the “mutEGFR” value in assay [3] was 142 pM.

In assay [1], `Cc1c(Cl)cccc1Nc1c(-c2ccncc2OC[C@@H]2CCCO2)[nH]c2c1C(=O)NCC2C` (mixture of isomers) [Example 58, 3-(3-chloro-2-methyl-anilino)-7-methyl-2-(3-{[(2S)-oxolan-2-yl]methoxy}pyridin-4-yl)-1,5,6,7-tetrahydropyrrolo[3,2-c]pyridin-4-one] registered an IC50 of 3.36 µM. In addition, the GI50 amounted to 1250 nM in assay [2] and 72.9 nM in assay [4]. Besides, the “mutEGFR” value in assay [3] came to 148 pM.

In turn, `COc1c(Cl)cccc1Nc1c(-c2ccncc2OCC2OCCC2(F)F)[nH]c2c1C(=O)N[C@H](C)C2` (mixture of isomers) [Example 71, (6R)-3-(3-chloro-2-methoxy-anilino)-2-{3-[(3,3-difluorotetrahydrofuran-2-yl)methoxy]-4-pyridyl}-6-methyl-1,5,6,7-tetrahydropyrrolo[3,2-c]pyridin-4-one] returned an IC50 in assay [1] of 5.74 µM. The values for the GI50 in assay [2] and in assay [4] were 731 nM and 42.9 nM, respectively. Also, the “mutEGFR” value in assay [3] stood at 186 pM.

The compound `COc1c(Cl)cccc1Nc1c(-c2ccncc2OCC2OCCCC2(F)F)[nH]c2c1C(=O)N[C@H](C)C2` (mixture of isomers) [Example 74, (6R)-3-(3-chloro-2-methoxy-anilino)-2-{3-[(3,3-difluorotetrahydropyran-2-yl)methoxy]-4-pyridyl}-6-methyl-1,5,6,7-tetrahydropyrrolo[3,2-c]pyridin-4-one] yielded an IC50 in assay [1] greater than 20 µM. The results for the GI50 in assay [2] and in assay [4] were 457 nM and 14 nM, respectively. In assay [3], the “mutEGFR” value is 242 pM.

In turn, `COc1c(Cl)cccc1Nc1c(-c2ccncc2OCC2COC(C)(C)CO2)[nH]c2c1C(=O)N[C@H](C)C2` (mixture of isomers) [Example 77, (6R)-3-(3-chloro-2-methoxy-anilino)-2-{3-[(5,5-dimethyl-1,4-dioxan-2-yl)methoxy]-4-pyridyl}-6-methyl-1,5,6,7-tetrahydropyrrolo[3,2-c]pyridin-4-one] had an IC50 in assay [1] greater than 20 µM. In addition, the GI50 in assay [2] amounted to 3200 nM; in assay [4], 15.3 nM. For the same compound, the “mutEGFR” value in assay [3] worked out at 150 pM.

Take `COc1c(Cl)cccc1Nc1c(-c2ccncc2OC[C@@H]2CCCO2)[nH]c2c1C(=O)NCC2C` (single isomer, unassigned) [Example 32]: in assay [1], the IC50 was 3.64 µM. Further, the results for the GI50 in assay [2] and in assay [4] were 737 nM and 52.7 nM, respectively.

`COc1c(Cl)cccc1Nc1c(-c2ccncc2OC[C@@H]2COCCN2C)[nH]c2c1C(=O)NCC2CCO` (single isomer, unassigned) [Example 115]: inhibition in assay [1] was half-maximal at 13.2 µM (IC50). Also, in assay [2], the GI50 turned out to be 5420 nM. For the same compound, in assay [3], the “mutEGFR” value amounted to 456 pM.

For the origin of these results see patent US20230064983A1 (priority 2020, published 2023).
